pIC50: −log10 of the molar value.
What was measured:
[1] = tested on: rat model of allergic contact dermatitis (ACD); assay: Rat model of allergic contact dermatitis (ACD model) induced by DNCB; type: in vivo; conditions: SD female rats, 5%, 1.5%, 0.5% applied to right ear by wiping three times a day, 4 days, FIG. 1
Description: IV. Effects of Compound 37 on a Rat Model of Allergic Contact Dermatitis (ACD Model) 1. Laboratory Animal
SPF SD female rats with body weight of 130-150 g were used.
Dexamethasone (DXMS) sodium phosphate injection, 5 mg/ml/injection (Shiyao Yinhu Pharmaceutical Co., Ltd.); 1-chloro-2,4-dinitrobenzene (DNCB) (TCI Shanghai); vehicle and negative control: acetone/DMSO 9:1 (Vehicle, Model group).
3.1 The animals were randomly divided into 6 groups based on body weight with 10 animals per group: blank control group, model control group, positive control group (dexamethasone sodium phosphate injection 5 mg/mL), 5% Compound 37 group, 1.5% Compound 37 group and 0.5% Compound 37 group.
3.2 Modeling and administration: a rat model of allergic contact dermatitis (ACD) was established by sensitizing and stimulating the rat's skin with a DNCB solution in acetone and DMSO (acetone-DMSO 9:1). The rats were normally fed in a SPF barrier system for 1 week. Long hair was removed with a razor and short hair was removed with depilatory cream within an area of about 2 cm×2 cm from abdomen of the rats one day before the experiment. […]
3.3 Measurement of difference between ear thicknesses: before the stimulation and after the final administration, the thickness of central parts of left and right ears of the rats in each of the groups was measured with electronic digital calipers. […]

human Kv1.3 = human Kv1.3 (Homo sapiens, UniProt P22001); assay: Conventional patch clamp assay of inhibitory activity against Kv1.3; type: cell-based; conditions: conventional patch-clamp method; CHO-K1 cells stably expressing human Kv1.3
Sequence of human Kv1.3 (P22001 whole entry): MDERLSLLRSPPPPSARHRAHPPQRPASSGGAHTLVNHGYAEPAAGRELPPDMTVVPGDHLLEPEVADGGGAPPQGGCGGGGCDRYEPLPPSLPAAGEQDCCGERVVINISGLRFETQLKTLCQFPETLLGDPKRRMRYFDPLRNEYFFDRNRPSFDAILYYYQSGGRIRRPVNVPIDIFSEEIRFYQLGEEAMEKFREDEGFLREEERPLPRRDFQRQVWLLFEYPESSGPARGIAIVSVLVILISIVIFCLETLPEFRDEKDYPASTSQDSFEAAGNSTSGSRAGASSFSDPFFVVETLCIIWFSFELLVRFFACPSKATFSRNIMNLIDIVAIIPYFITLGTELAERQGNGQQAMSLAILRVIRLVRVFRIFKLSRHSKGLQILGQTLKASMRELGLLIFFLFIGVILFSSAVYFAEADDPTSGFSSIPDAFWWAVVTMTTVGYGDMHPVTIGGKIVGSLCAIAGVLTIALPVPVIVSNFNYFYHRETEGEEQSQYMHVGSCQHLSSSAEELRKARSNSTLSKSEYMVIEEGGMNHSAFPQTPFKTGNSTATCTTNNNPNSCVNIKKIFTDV
Excerpt: II. Conventional Patch Clamp Assay of Inhibitory Activity Against Kv1.3
In order to compare the influence of different assay methods on the inhibitory activity of a compound, the conventional patch clamp method was used to assay the inhibitory activities of compounds 21, 37, 44, 61 against Kv1.3. The principle and method for the conventional patch clamp method can be found in Grissmer et al. [Grissmer et al. Molecular Pharmacology 1994, 45:1227-1234].
Inhibitory activity of the compounds against Kv1.3 was assessed using a CHO-K1 recombinant cell line stably expressing human Kv1.3 (Charles River, California). The cells were cultured in an F-12K culture medium containing 5% calf serum (Invitrogen, Carlsbad.ca) in an incubator at 37° C. and under air humidity with 6% CO2.
During the experiment, adherent cells were placed in a recording chamber under an inverted microscope. All the experiments were performed at room temperature. Each of the cells used itself as the control.
The test compounds were formulated to their final concentrations on the day of assay, and then dissolved in an extracellular fluid. The extracellular fluid (mM) was: NaCl, 137; KCl, 4; CaCl2, 1.8; MgCl2, 1; HEPES, 10; glucose 10; pH 7.4 (NaOH titration). All the solutions of the test compounds and the control compounds contained 0.3% of DMSO.
Each of the compounds was perfused by a gravity-driven perfusion system. At least two cells were tested for each of the concentrations of a compound. After the current was stable, the blocking effect of the compounds was calculated by comparing the change in the current before and after administration of the compounds. 1000 μM 4-AP was used as a positive control.
The cells were transferred to a perfusion chamber, and were perfused with the extracellular fluid. Intracellular fluid (mM): K-aspartate, 130; MgCl2, 5; EGTA 5; HEPES, 10; pH 7.2 (KOH titration). The intracellular fluid was stored in a small amount in a refrigerator at −80° C. in batches, and was thawed on the day of the experiment. The electrodes were drawn by PC-10 (Narishige, Japan). A whole-cell patch-clamp recording was performed, with the noise being filtered by one-fifth of the sampling frequency.
The cells were clamped at −80 mV and then depolarized to 0 mV with square waves lasting for 2 seconds to obtain a Kv1.3 current. This process was repeated every 20 seconds. The maximum current elicited by the square waves was detected. After the maximum current became stable, the test compounds were perfused. After the reaction was stable, the blocking strength was calculated.
Data was collected and analyzed using pCLAMP 10 (Molecular Devices, Union City, CA). A stable current meant a current which varies within a limited range over time. […]

SMILES: CC(C)CS(=O)(=O)N(Cc1ccc(F)cc1)c1ccc(N2CCN(C(=O)N(C)C)CC2)c(C#N)c1 [Compound 37, 4-(2-cyano-4-((N-(4-fluorobenzyl)-2-methylpropyl)sulfonamido)phenyl)-N,N-dimethylpiperazin-1-formamide]
- ear inflammation (difference between ear thicknesses) [1]: significantly reduced ear inflammation
- pIC50 (human Kv1.3): 6.97

— US11993576B2, “N-benzyl-N-arylsulfonamide derivative and preparation and use thereof” (Hangzhou Yirui Pharmaceutical Technology Co., Ltd, priority 2019, dated 2024)
